This note sets out measurements from patent EP4620955A1, “MC4R ANTAGONIST COMPOUND, PHARMACEUTICAL COMPOSITION AND PHARMACEUTICAL USE THEREOF” (Changchun Genescience Pharmaceutical Co., Ltd., priority 2022, dated 2024).

SMILES strings stand for the structures. Read-outs that look alike come from different tables or passages of the source.

The target in one data set is T1, MC4R (Homo sapiens, UniProt P32245).
T1 construct: expressed in transfected cells; host or cells: flipin-293-MC4 (Flp-In 293 host, hygromycin selection)
In words: Assay of MC4R antagonist activity in cells in vitro (cAMP assay, Melanotan I stimulation). As to conditions: flipin-293-MC4 cell line, Melanotan I as agonist. The format is cell-based. As for the experimental part:
Test Example 1: Assay of MC4R antagonist activity in cells in vitro
a. Experimental consumables:
b. Experimental steps • ✔ Cell line: flipin-293-MC4 • ✔ Cell culture medium: DMEM, 10% fetal bovine serum, 1 × PS, 200 µg/mL hygromycin • ✔ Experimental buffer: HBSS, 20 mM HEPES, 0.1% BSA, 500 µM IBMX • ✔ Positive compound: ML00253764 c. Antagonist detection • 1. Digested cells were suspended in the experimental buffer, and then inoculated into the 384-well cell culture plate. • 2. The to-be-detected compound was added to the cell plate, and incubated at 37°C for 10 min. • 3. Melanotan I was added to the cell plate, and incubated at 37°C for 30 min. • 4. Two detection reagents EU cAMP tracer and ulight anti camp were thawed and diluted with a lysis solution in the kit. • 5. The diluted detection reagents were added to the cell plate and incubated at room temperature for 1 h. • 6. Reading was carried out by Envision. (Excitation light: 340 nm, emission light: 615 nm and 665 nm) d. Data analysis • 1. %Inhibition calculation: %Inhibition = (Signalcmpd−SignalAve_VC)/(SignalAve_PC−SignalAve_VC) × 100. [formula] • Signalcmpd: compound signal value; • SignalAve_VC: negative control signal value; • SignalAve_PC: positive control signal value; • %inhibition: inhibition percentage. • 2. Calculation of IC50 of the compound using the nonlinear fitting equation in GraphPad: Y = Bottom + (Top−Bottom)/(1+10^(∧)((LogIC50−X)×HillSlope)) [formula] X: logarithmic value of the concentration of the compound; Y: inhibition percentage
In general terms: Changes in cAMP serve as a functional read-out for many G protein-coupled receptors.

Data set [1] in a line: Pharmacokinetic study on the tested compound in SD male rats. As to conditions: IV 1 mpk/PO 2 mpk; for AUC / Cmax / clearance / half-life: Sprague-Dawley (SD), rat, plasma. The format is in vivo. As for the experimental part: On the day of administration, the tested compound was prepared with 5% DMSO + 5% Solutol + 90% Saline as a solvent into a solution for administration for use.
The solution for administration was administered to an intravenous injection IV group at a dose of 1 mg/kg in a concentration of 0.2 mg/mL. The solution for administration was administered to an oral gavage PO group at a dose of 2 mg/kg in a concentration of 0.2 mg/mL. The animals in the PO group were required to fast overnight in advance, drink water freely, and be fed 4 hours after administration. The IV group was not required to fast.
The animals were weighed before administration. On the day of administration, the solution was IV/PO-administered once in an administration amount calculated based on the weight. In the IV group, blood was collected from veins at 0.083 h, 0.25 h, 0.5 h, 1.0 h, 2.0 h, 4.0 h, 8.0 h, and 24 h after administration. In the PO group, blood was collected from veins at 0.25 h, 0.5 h, 1.0 h, 2.0 h, 4.0 h, 6.0 h, 8.0 h, and 24 h after administration. The amount of blood collected was about 0.20 mL. K2-EDTA was used in blood collection tubes as an anticoagulant. The collected blood sample was centrifuged (centrifugation conditions: 6800 g, 6 min, 2°C to 8°C) within 1 h to obtain plasma. The to-be-tested sample was stored in a refrigerator at -80°C before analysis.
The concentration of the tested compound in the plasma of the SD male rats was detected by the validated LC-MS/MS method.

The target in the next data set is T2, CYP 3A4M (Homo sapiens, UniProt P08684).
T2 construct: from tissue; host or cells: human liver microsomes (HLM)
In words: Inhibition of P450 enzyme (CYP 3A4, midazolam as substrate) in human liver microsomes. The format is in vitro ADME. Here is the method: The inhibitory effect of the tested compound on 3A4-M (with midazolam as a substrate) in human liver microsomes is evaluated in vitro to assess the safety of the compound.
In this study, the inhibition of CYP 3A4 enzyme in human liver microsomes by the tested compound was investigated using the human liver microsomal system and the cytochrome P450 enzyme probe substrate recommended by the FDA Guidance for In Vitro Drug Interaction Studies. The human liver microsomes were incubated separately with the tested compound of different concentrations (0 µM to 30.0 µM) and corresponding probe substrates. Then, the changes of activity of the CYP enzyme were determined, and the IC50 value was calculated, to evaluate the inhibitory potential of the tested compound on the CYP 3A4 enzyme.
Test group (TG): The human liver microsomes were incubated separately with the tested compound of different concentrations, NADPH (in a final concentration of 2.00 mM), and probe substrates (Table 4) of different enzymes in subfamilies for 5 min.
Positive control group (PC): The human liver microsomes were incubated separately with an inhibitor (Table 4), NADPH (in a final concentration of 2.00 mM), and a probe substrate (Table 4) of 3A4M for 5 min. Table 4 Probe substrate of each enzyme in the subfamily, inhibitor, and incubation system
At the end of the incubation, the reaction was terminated with a stop solution.
8 µL of 30 mM test sample was transferred to 12 µL of DMSO to give a 12 mM test sample intermediate solution, and then diluted with DMSO to give test sample working solutions in different concentrations (12 mM, 4 mM, 1.33 mM, 0.433 mM, 0.147 mM, 0.049 mM, and 0.0164 mM).
To 12 µL of DMSO was added 8 µL of 2.5 mM CYP3A4 inhibitor ketoconazole stock solution to give a 1 mM positive control inhibitor working solution.
(§1) 199 µL of 0.2 mg/mL HLM and 1 µL of test sample working solution (12 mM, 4 mM, 1.33 mM, 0.433 mM, 0.147 mM, 0.049 mM, and 0.0164 mM) were mixed uniformly. 30 µL of this liver microsome solution was added to a 96-well plate, and then 10 µL of substrate working solution (320 µM testosterone or 20 µM midazolam) was added. This preparation process was carried out in duplicate. After pre-incubation at 37°C for 5 min, 15 µL of 8 mM NADPH solution pre-warmed at 37°C for 5-10 min was added to initiate the reaction. After incubation in the 96-well plate at 37°C for 5 min, 180 µL of acetonitrile/methanol (ACN:MeOH = 1:1) solution containing the internal standard (IS) was added to terminate the reaction. The 96-well plate was shaken at 600 rpm for 5-10 min, and then centrifuged at 6000 rpm for 15 min. 80 µL of supernatant was taken and added to 120 µL of ultrapure water, shaken uniformly, and then detected by LC-MS/MS.
as §1, with “1 mM positive control inhibitor (ketoconazole)” for “test sample”, “solution” for “solution (12 mM, 4 mM, 1.33 mM, 0.433 mM, 0.147 mM, 0.049 mM, and 0.0164 mM)”, “(20” for “(320 µM testosterone or 20”, “ACN:MeOH (1:1)” for “acetonitrile/methanol (ACN:MeOH = 1:1)”, “IS” for “the internal standard (IS)”, “LC-MS/MS. […]” for “LC-MS/MS.”
In general terms: Liver microsomes are vesicles of endoplasmic reticulum, rich in cytochrome P450 enzymes.

The mark [2] stands for this setting: human liver microsomes 0.100 mg/mL, midazolam 5.00 µM as substrate, 5 min incubation, read-out: CYP 3A4M IC50.

The IC50 is the concentration that inhibits the measured activity by half. The term AUC denotes the area under the concentration-time curve, a measure of exposure. A higher AUC goes with more exposure. As a reminder, the Cmax is the maximum level reached in the sampled fluid or tissue. The half-life is the time needed for the level to fall by half in the phase considered.

T2 sequence (P08684 whole entry): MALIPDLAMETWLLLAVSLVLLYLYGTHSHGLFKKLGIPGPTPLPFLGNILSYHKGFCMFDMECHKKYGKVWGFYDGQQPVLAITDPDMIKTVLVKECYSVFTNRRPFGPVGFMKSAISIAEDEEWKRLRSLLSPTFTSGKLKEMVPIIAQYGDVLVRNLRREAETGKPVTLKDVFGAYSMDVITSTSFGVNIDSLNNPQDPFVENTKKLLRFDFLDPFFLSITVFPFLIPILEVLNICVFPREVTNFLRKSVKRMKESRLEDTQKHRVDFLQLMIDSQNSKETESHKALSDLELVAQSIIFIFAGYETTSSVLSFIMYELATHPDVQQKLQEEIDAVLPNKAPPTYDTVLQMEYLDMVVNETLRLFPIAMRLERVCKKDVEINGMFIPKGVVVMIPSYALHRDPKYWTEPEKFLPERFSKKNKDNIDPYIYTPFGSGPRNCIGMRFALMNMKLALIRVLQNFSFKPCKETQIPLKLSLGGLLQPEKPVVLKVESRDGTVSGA
T1 sequence (P32245 whole entry): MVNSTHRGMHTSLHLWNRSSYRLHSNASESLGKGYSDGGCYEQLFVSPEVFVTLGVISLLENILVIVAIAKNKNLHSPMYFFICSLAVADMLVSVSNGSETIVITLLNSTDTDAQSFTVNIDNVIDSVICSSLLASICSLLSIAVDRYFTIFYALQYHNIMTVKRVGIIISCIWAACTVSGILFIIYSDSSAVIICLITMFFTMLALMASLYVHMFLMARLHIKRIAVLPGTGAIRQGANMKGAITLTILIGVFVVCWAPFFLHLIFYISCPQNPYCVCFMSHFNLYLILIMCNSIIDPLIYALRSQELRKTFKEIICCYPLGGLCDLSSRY

With `COc1cc([C@@H](C)C(=O)N2CC[C@H](Nc3ccc(-c4ncccn4)c(C)n3)C2)c(Cl)cn1` [Compound 083-1, (R)-2-(5-chloro-2-methoxypyridine-4-yl)-1-((S)-3-((6-methyl-5-(pyrimidine-2-yl)pyridine-2-yl)amino)pyrrolidine-1-yl)propane-1-one], on MC4R, the IC50 is 1.82 nM. For the same compound, in data set [1], the F is reported as 31.3%, the AUC was found to be 240 ng·h/mL, the peak concentration (Cmax) stood at 156 ng/mL and the clearance amounted to 43.7 mL/min/kg. The compound also gave a half-life in data set [1] of 39 min. In addition, the IC50 on CYP 3A4M (setting [2]) turned out to be 5800 nM.

Consider `COc1cc([C@@H](C)C(=O)N2CC[C@H](Nc3ccc(-c4nccc(C#N)n4)c(C)n3)C2)c(F)cn1` [Compound 111, 2-(6-(((S)-1-((R)-2-(5-fluoro-2-methoxypyridine-4-yl)propionyl)pyrrolidine-3-yl)amino)-2-methylpyridine-3-yl)pyrimidine-4-nitrile], for which the IC50 at MC4R is 3.4 nM; on CYP 3A4M (setting [2]), 2940 nM.

On MC4R, `COc1cc([C@@H](C)C(=O)N2C[C@@H](Nc3ccc(-c4ncccn4)c(C)n3)C3(CC3)C2)c(Cl)cn1` [Compound 114, (R)-2-(5-chloro-2-methoxypyridine-4-yl)-1-((S)-7-((6-methyl-5-(pyrimidine-2-yl)pyridine-2-yl)amino)-5-azaspiro[2.4]heptane-5-yl)propan-1-one] had an IC50 of 2.45 nM. In data set [1], this compound registered an F of 54.0%, an AUC of 450 ng·h/mL, a Cmax of 197 ng/mL and a clearance of 39.9 mL/min/kg. The same compound had a half-life in data set [1] of 58.8 min. Moreover, the IC50 at CYP 3A4M (setting [2]) stood at 29500 nM.

Regarding `COc1cc([C@@H](C)C(=O)N2C[C@@H](Nc3ccc(-c4nccc(C#N)n4)c(C)n3)C3(CC3)C2)c(F)cn1` [Compound 116, 2-(6-(((S)-5-((R)-2-(5-fluoro-2-methoxypyridine-4-yl)propionyl)-5-azaspiro[2.4]heptane-7-yl)amino)-2-methylpyridine-3-yl)pyrimidine-4-nitrile], the IC50 at MC4R was 2.15 nM; at CYP 3A4M (setting [2]), over 30000 nM.

Turning to `COc1cc([C@@H](C)C(=O)N2C[C@@H](Nc3ccc(-c4cn(C)nn4)c(C)n3)C3(CC3)C2)c(Cl)cn1` [Compound 165, (R)-2-(5-chloro-2-methoxypyridine-4-yl)-1-((S)-7-((6-methyl-5-(1-methyl-1H-1,2,3-triazol-4-yl)pyridine-2-yl)amino)-5-azaspiro[2.4]hept-5-yl)propan-1-one], the IC50 on MC4R worked out at 2.86 nM. For the same compound, in data set [1], the F was 56.0%, the AUC was 858 ng·h/mL, the peak level (Cmax) was 577 ng/mL and the clearance came out at 22.3 mL/min/kg. Moreover, the half-life in data set [1] is 39 min.

For the compound `COc1cc([C@@H](C)C(=O)N2C[C@@H](Nc3ccc(-c4cn(C)c(OC(F)F)n4)c(C)n3)C3(CC3)C2)c(F)cn1` [Compound 185, (R)-1-((S)-7-((5-(2-(difluoromethoxy)-1-methyl-1H-imidazol-4-yl)-6-methylpyridine-2-yl)amino)-5-azaspiro[2.4]hept-5-yl)-2-(5-fluoro-2-methoxypyridine-4-yl)propan-1-one], the IC50 at MC4R is 0.54 nM. Moreover, in data set [1], the F stood at 22.9%, the AUC stood at 170 ng·h/mL, the Cmax came out at 129 ng/mL and the clearance worked out at 45.4 mL/min/kg. In addition, in data set [1], the half-life is 40.8 min.

Take `COc1cc([C@@H](C)C(=O)N2CC[C@H](Nc3ccc(-c4ncccn4)c(C)n3)C2)c(Br)cn1` [Compound 200, (R)-2-(5-bromo-2-methoxypyridine-4-yl)-1-((S)-3-((6-methyl-5-(pyrimidine-2-yl)pyridine-2-yl)amino)pyrrolidine-1-yl)propan-1-one]: the IC50 was 0.98 nM on MC4R and 3750 nM at CYP 3A4M (setting [2]).

Take `COc1cc([C@@H](C)C(=O)N2C[C@@H](Nc3ccc(-c4ncccn4)c(C)n3)C3(CC3)C2)c(Br)cn1` [Compound 201, (R)-2-(5-bromo-2-methoxypyridine-4-yl)-1-((S)-7-((6-methyl-5-(pyrimidine-2-yl)pyridine-2-yl)amino)-5-azaspiro[2.4]hept-5-yl)propan-1-one]: the IC50 on MC4R was 1.41 nM; at CYP 3A4M it was over 30000 nM.
